According to patent publication US20250034110A1, “LPAR1 ANTAGONISTS AND USES THEREOF” (Pipeline Therapeutics, Inc., priority 2021, published 2025):
Read-outs that look alike come from different tables or passages of the source.

Target: human LPAR1 (Homo sapiens, UniProt Q92633)
Experiment: In vitro functional assay of lysophosphatidic acid receptor 1 activity (calcium flux)
Type: cell-based
[1] = B103 cells stably expressing human LPAR1, calcium flux (Fluo-4 NW) after lysophosphatidic acid (18:1) at EC80, 100 pM to 10 μM, read-out: LPAR1 IC50

Chain of human LPAR1 (Q92633 whole entry): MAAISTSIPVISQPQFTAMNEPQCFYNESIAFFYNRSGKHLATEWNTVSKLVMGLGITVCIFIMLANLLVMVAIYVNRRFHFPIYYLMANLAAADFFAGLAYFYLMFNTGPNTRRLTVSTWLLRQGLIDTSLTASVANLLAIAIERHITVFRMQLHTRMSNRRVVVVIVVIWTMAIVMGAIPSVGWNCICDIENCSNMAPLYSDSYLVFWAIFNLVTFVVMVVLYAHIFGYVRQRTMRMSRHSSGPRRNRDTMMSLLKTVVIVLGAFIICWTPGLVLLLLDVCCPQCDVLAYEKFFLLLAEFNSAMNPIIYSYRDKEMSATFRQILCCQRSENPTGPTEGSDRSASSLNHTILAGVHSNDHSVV

SMILES | IC50 [1] | IC50 (LPAR1 IC50)
Cc1ccc(NC(=O)N(c2ccccc2C(C)C)[C@H]2C[C@@H](CC(N)=O)C2)c(OC(F)F)n1 [Example 189] | 100 to 1000 nM | 
CNC(=O)CC1CC(N(C(=O)Nc2ccc(C)nc2OC(F)F)c2ccccc2C(C)C)C1 (centres unmarked) [Example 190, 2-(3-(3-(2-(difluoromethoxy)-6-methylpyridin-3-yl)-1-(2-isopropylphenyl)ureido)cyclobutyl)-N-methylacetamide] | 100 to 1000 nM | 
Cc1ccc(NC(=O)N(c2ccccc2C(C)C)[C@H]2C[C@H](Cc3nnn[nH]3)C2)c(OC(F)F)n1 [Example 191, 1-((1r,3r)-3-((1H-tetrazol-5-yl)methyl)cyclobutyl)-3-(2-(difluoromethoxy)-6-methylpyridin-3-yl)-1-(2-isopropylphenyl)urea] | 10 to 100 nM | 
Cc1ccc(NC(=O)N(c2ccccc2C(C)C)[C@H]2C[C@@H](Cc3nnn[nH]3)C2)c(OC(F)F)n1 [Example 192] | 10 to 100 nM | 
Cc1ccc(NC(=O)N(c2ccccc2C(C)C)[C@H]2C[C@@H](CO)C2)c(OC(F)F)n1 [Example 193, 3-(2-(difluoromethoxy)-6-methylpyridin-3-yl)-l-((1 s,3s)-3-(hydroxymethyl)cyclobutyl)-1-(2-isopropylphenyl)urea] | 100 to 1000 nM | 
Cc1ccc(NC(=O)N(c2ccccc2C(C)C)C2CC(C=O)C2)c(OC(F)F)n1 (centres unmarked) [Example 194, 3-(2-(difluoromethoxy)-6-methylpyridin-3-yl)-1-(3-formylcyclobutyl)-1-(2-isopropylphenyl)urea] | 100 to 1000 nM | 
Cc1ccc(NC(=O)N(c2ccccc2C(C)C)C2CC(=O)C2)c(OC(F)F)n1 [Example 195] | 10 to 100 nM | 
Cc1ccc(NC(=O)N(c2ccccc2C(C)C)C2CC(O)(C(F)(F)F)C2)c(OC(F)F)n1 (centres unmarked) [Example 196, 3-(2-(difluoromethoxy)-6-methylpyridin-3-yl)-1-(3-hydroxy-3-(trifluoromethyl)cyclobutyl)-1-(2-isopropylphenyl)urea] | > 1000 nM | 
CC(=O)N1CCC(N(C(=O)Nc2ccc(C)[n+]([O-])c2OC(F)F)c2ccccc2C(C)C)CC1 [Example 197, 3-(3-(1-acetylpiperidin-4-yl)-3-(2-isopropylphenyl)ureido)-2-(difluoromethoxy)-6-methylpyridine 1-oxide] |  | > 1000 nM
CC(=O)N1CCC(N(C(=O)Nc2cc(F)c(Br)nc2OC(F)F)c2ccccc2C(C)C)CC1 [Example 217] |  | 10 to 100 nM
CC(=O)N1CCC(N(C(=O)Nc2cc(F)c(C)nc2OC(F)F)c2ccccc2C(C)C)CC1 [Example 218, 1-(1-acetylpiperidin-4-yl)-3-(2-(difluoromethoxy)-5-fluoro-6-methylpyridin-3-yl)-1-(2-isopropylphenyl)urea] |  | 10 to 100 nM
Cc1nc(OC(F)F)c(NC(=O)N(c2ccccc2C(C)C)[C@H]2CC[C@H](C(=O)O)CC2)cc1F [Example 221, (1r,4r)-4-(3-(2-(difluoromethoxy)-5-fluoro-6-methylpyridin-3-yl)-1-(2-isopropylphenyl)ureido)cyclohexane-1-carboxylic acid] | < 10 nM | 
Cc1nc(OC(F)F)c(NC(=O)N(c2ccccc2C(C)C)[C@H]2CC[C@@H](CC(=O)O)CC2)cc1F [Example 222] | 10 to 100 nM | 
CC(C)c1ccccc1N(C(=O)Nc1cc(F)c(C2CC2)nc1OC(F)F)[C@H]1CC[C@H](C(=O)O)CC1 [Example 223] | 10 to 100 nM | 
Cc1ccc(NC(=O)N(CC2CC(CC(=O)O)C2)c2ccccc2C(C)C)c(OC(F)F)n1 (centres unmarked) [Example 224] | < 10 nM | 
COc1nc(OC(F)F)c(NC(=O)N(c2ccccc2C(C)C)C2CCN(C(C)=O)CC2)cc1F [Example 225, 1-(1-acetylpiperidin-4-yl)-3-(2-(difluoromethoxy)-5-fluoro-6-methoxypyridin-3-yl)-l-(2-isopropylphenyl)urea] |  | 10 to 100 nM
COC(=O)c1cc(Br)cnc1NC(=O)N(c1ccccc1C(C)C)C1CCN(C(C)=O)CC1 [Example 226] |  | 100 to 1000 nM
Cc1cc(OC(F)F)c(NC(=O)N(C[C@H]2C[C@H](C(=O)O)C2)c2ccccc2C(C)C)cn1 [Example 227] | 10 to 100 nM | 
Cc1ccc(NC(=O)N(c2ccccc2C(C)C)C2CC3(CC(C(=O)O)C3)C2)c(OC(F)F)n1 (centres unmarked) [Example 229] | 10 to 100 nM | 
CC(C)c1ccccc1N(C(=O)Nc1ccc(C2CC2)nc1OC(F)F)[C@H]1CC[C@H](C(=O)O)CC1 [Example 232] | 10 to 100 nM | 
COc1ccc(NC(=O)N(c2ccccc2C(C)C)C2CC3(CC(C(=O)O)C3)C2)c(OC(F)F)n1 (centres unmarked) [Example 233] | 10 to 100 nM | 
COc1ccc(NC(=O)N(CC23CC(C(=O)O)(C2)C3(F)F)c2ccccc2C(C)C)c(OC(F)F)n1 [Example 234] | 10 to 100 nM | 

SMILES | IC50 [1] | IC50 (LPAR1 IC50)
Cc1ccc(NC(=O)N(CC23CC(C(=O)O)(C2)C3(F)F)c2ccccc2C(C)C)c(OC(F)F)n1 [Example 235] | 10 to 100 nM | 
Cc1ccc(NC(=O)N(c2ccccc2C(C)C)C2CCC3(CC2)COC3)c(OC(F)F)n1 [Example 236, 3-(2-(difluoromethoxy)-6-methylpyridin-3-yl)-1-(2-isopropylphenyl)-1-(2-oxaspiro[3.5]nonan-7-yl)urea] | 100 to 1000 nM | 
Cc1ccc(NC(=O)N(c2ccccc2C(C)C)C2CCC(F)(F)CC2)c(OC(F)F)n1 [Example 237, 1-(4,4-difluorocyclohexyl)-3-(2-(difluoromethoxy)-6-methylpyridin-3-yl)-1-(2-isopropylphenyl)urea] | 100 to 1000 nM | 
Cc1ccc(NC(=O)N(c2ccccc2C(C)C)[C@H]2CC[C@@H](C(C)(C)O)CC2)c(OC(F)F)n1 [Example 238, 3-(2-(difluoromethoxy)-6-methylpyridin-3-yl)-1-((1s,4s)-4-(2-hydroxypropan-2-yl)cyclohexyl)-1-(2-isopropylphenyl)urea] | 100 to 1000 nM | 
Cc1ccc(NC(=O)N(c2ccccc2C(C)C)[C@H]2CC[C@H](O)CC2)c(OC(F)F)n1 [Example 239, 3-(2-(difluoromethoxy)-6-methylpyridin-3-yl)-1-((1r,4r)-4-hydroxycyclohexyl)-1-(2-isopropylphenyl)urea] | 100 to 1000 nM | 
Cc1ccc(NC(=O)N(c2ccccc2C(C)C)[C@H]2CC[C@@H](C#N)CC2)c(OC(F)F)n1 [Example 240, 1-((1s,4s)-4-cyanocyclohexyl)-3-(2-(difluoromethoxy)-6-methylpyridin-3-yl)-1-(2-isopropylphenyl)urea] | 100 to 1000 nM | 
Cc1ccc(NC(=O)N(c2ccccc2C(C)C)[C@H]2CC[C@H](C#N)CC2)c(OC(F)F)n1 [Example 241, 1-((1r,4r)-4-cyanocyclohexyl)-3-(2-(difluoromethoxy)-6-methylpyridin-3-yl)-1-(2-isopropylphenyl)urea] | 100 to 1000 nM | 
Cc1ccc(NC(=O)N(c2ccccc2C(C)C)[C@H]2CC[C@@H](CO)CC2)c(OC(F)F)n1 [Example 242] | 100 to 1000 nM | 
Cc1ccc(NC(=O)N(c2ccccc2C(C)C)C2CCC(=O)CC2)c(OC(F)F)n1 [Example 243] | 100 to 1000 nM | 
Cc1ccc(NC(=O)N(c2ccccc2C(C)C)[C@H]2CC[C@@H](C=O)CC2)c(OC(F)F)n1 [Example 244] | > 1000 nM | 
Cc1ccc(NC(=O)N(c2ccccc2C(C)C)[C@H]2CC[C@@H](C(F)F)CC2)c(OC(F)F)n1 [Example 245, 3-(2-(difluoromethoxy)-6-methylpyridin-3-yl)-1-((1s,4s)-4-(difluoromethyl)cyclohexyl)-1-(2-isopropylphenyl)urea] | > 1000 nM | 
CC(=O)N1CCC(N(C(=O)Nc2cncc(F)c2)c2ccccc2C(C)C)CC1 [Example 246] |  | > 1000 nM
Cc1ccc(NC(=O)N(c2ccccc2C(C)C)[C@H]2CC[C@H](CC(C)(C)O)CC2)c(OC(F)F)n1 [Example 247, 3-(2-(difluoromethoxy)-6-methylpyridin-3-yl)-1-((1r,4r)-4-(2-hydroxy-2-methylpropyl)cyclohexyl)-1-(2-isopropylphenyl)urea] | 10 to 100 nM | 
Cc1ccc(NC(=O)N(c2ccccc2C(C)C)[C@H]2CC[C@H](c3nnn[nH]3)CC2)c(OC(F)F)n1 [Example 248] | 100 to 1000 nM | 
Cc1ccc(NC(=O)N(c2ccccc2C(C)C)C2CC3(CCC(C(=O)O)CC3)C2)c(OC(F)F)n1 (centres unmarked) [Example 249] | 10 to 100 nM | 
CC(=O)N1CC2(CCC(N(C(=O)Nc3ccc(C)nc3OC(F)F)c3ccccc3C(C)C)CC2)C1 [Example 250, 1-(2-acetyl-2-azaspiro[3.5]nonan-7-yl)-3-(2-(difluoromethoxy)-6-methylpyridin-3-yl)-1-(2-isopropylphenyl)urea] | 100 to 1000 nM | 
CC(=O)N1CCC2(CC1)CC(N(C(=O)Nc1ccc(C)nc1OC(F)F)c1ccccc1C(C)C)C2 [Example 251, 1-(7-acetyl-7-azaspiro[3.5]nonan-2-yl)-3-(2-(difluoromethoxy)-6-methylpyridin-3-yl)-1-(2-isopropylphenyl)urea] | > 1000 nM | 
CC(C)Oc1ccc(NC(=O)N(c2ccccc2C(C)C)[C@H]2CC[C@H](C(=O)O)CC2)c(OC(C)C)n1 [Example 252, (1r,4r)-4-(3-(2,6-diisopropoxypyridin-3-yl)-1-(2-isopropylphenyl)ureido)cyclohexane-1-carboxylic acid] | 100 to 1000 nM | 
COc1ccc(NC(=O)N(c2ccccc2C(C)C)[C@H]2CC[C@H](C(=O)O)CC2)c(OCc2ccccc2)n1 [Example 253, (1r,4r)-4-(3-(2-(benzyloxy)-6-methoxypyridin-3-yl)-1-(2-isopropylphenyl)ureido)cyclohexane-1-carboxylic acid] | 10 to 100 nM | 
COc1ccc(NC(=O)N(c2ccccc2C(C)C)[C@H]2CC[C@H](C(=O)O)CC2)c(O)n1 [Example 254] | > 1000 nM | 
Cc1ccc(NC(=O)N(c2ccccc2C(C)C)[C@H]2CC[C@@H](S(C)(=O)=O)CC2)c(OC(F)F)n1 [Example 255, 3-(2-(difluoromethoxy)-6-methylpyridin-3-yl)-1-(2-isopropylphenyl)-1-((1s,4s)-4-(methylsulfonyl)cyclohexyl)urea] | 10 to 100 nM | 
Cc1ccc(NC(=O)N(c2ccccc2C(C)C)[C@H]2CC[C@H](S(C)(=O)=O)CC2)c(OC(F)F)n1 [Example 256, 3-(2-(difluoromethoxy)-6-methylpyridin-3-yl)-1-(2-isopropylphenyl)-1-((1r,4r)-4-(methylsulfonyl)cyclohexyl)urea] | 100 to 1000 nM | 
